Experimental data taken from patent US20190309272A1, “Genetically Modified Cell Lines Including a TP53 Modification and Methods of Use” (UNIVERSITY OF SOUTH CAROLINA, priority 2018, published 2019).
Structures can show the parent of a compound that is named as a salt. Where two headings read alike, the source gives them in different places. Starred links: 1 amine or outer side, 2 acyl side, 3 side chain; linkers in the order of their positions; H or OH if unused. Positions of bridges follow the written chain, without caps; N, C: chain ends. Non-standard residues stand in square brackets, D forms with d. Residues, ends and D or L forms follow the SMILES beside them. Chains are numbered I, II in the order given. Actinocin(9to1) = Cc1c2oc3c(C)ccc(C(=O)[*:1])c3nc-2c(C(=O)[*:2])c(N)c1=O; NMeV = CN[C@H](C(=O)O)C(C)C; Sar = CNCC(=O)O

Assays:
Assay type in all cases: cell-based, Human
MCF7 WT Parental pool = assay: Drug screening, resazurin, MCF7 wild type parental pool
MCF7 TP53 KO 3.4 pool = assay: Drug screening, resazurin, TP53 KO 3.4 pool
MCF7 TP53 KO 5.6 pool = assay: Drug screening, resazurin, TP53 KO 5.6 pool
[1] = ten-day drug treatment, 156.25 nM to 10 μM, resazurin fluorescence

Compound	MCF7 WT Parental pool (AUC) (MCF7 WT Parental pool; [1])	TP53 KO 3.4 pool (AUC) (MCF7 TP53 KO 3.4 pool; [1])	TP53 KO 5.6 pool (AUC) (MCF7 TP53 KO 5.6 pool; [1])	MCF7 WT Parental pool (AUC) (MCF7 WT Parental pool)	TP53 KO 3.4 pool (AUC) (MCF7 TP53 KO 3.4 pool)	TP53 KO 5.6 pool (AUC) (MCF7 TP53 KO 5.6 pool)
Nc1nc(Cl)nc2c1ncn2[C@H]1C[C@H](O)[C@@H](CO)O1 [Cladribine]	5.569	3.767	3.956	–	–	–
Nc1nc(Cl)nc2c1ncn2[C@@H]1O[C@H](CO)[C@@H](O)[C@@H]1F [Clofarabine]	5.232	3.085	3.74	–	–	–
CC1=C2C[C@H]3[C@@H](CC=C4C[C@@H](O)CC[C@@]43C)[C@@H]2CC[C@]12O[C@@H]1C[C@H](C)CN[C@H]1[C@H]2C [Clyclopamine]	9.488	9.033	9.093	–	–	–
O=C(c1ccc(F)c(F)c1Nc1ccc(I)cc1F)N1CC(O)([C@@H]2CCCCN2)C1 [Cobimetinib]	7.621	4.851	8.041	–	–	–
C[C@@H](Oc1cc(-c2cnn(C3CCNCC3)c2)cnc1N)c1c(Cl)ccc(F)c1Cl [Crizotinib]	2.549	2.325	2.941	–	–	–
O=P1(N(CCCl)CCCl)NCCCO1 (stereo not shown) [Cyclophosphamide]	–	–	–	16.16	15.2	16.92
Nc1ccn([C@@H]2O[C@H](CO)[C@@H](O)[C@@H]2O)c(=O)n1 [Cytarabine Hydrochloride]	4.771	–	–	–	–	–
Cc1c2oc3c(C)ccc(C(=O)N[C@@H]4C(=O)N[C@H](C(C)C)C(=O)N5CCC[C@H]5C(=O)N(C)CC(=O)N(C)[C@@H](C(C)C)C(=O)O[C@@H]4C)c3nc-2c(C(=O)N[C@@H]2C(=O)N[C@H](C(C)C)C(=O)N3CCC[C@H]3C(=O)N(C)CC(=O)N(C)[C@@H](C(C)C)C(=O)O[C@@H]2C)c(N)c1=O [Dactinomycin] (I: T[dV]P[Sar][NMeV] / II: T[dV]P[Sar][NMeV]; ester I:1-I:C, II:1-II:C; linker I:N-II:N via Actinocin(9to1))	2.01	1.588	1.65	–	–	–
Cc1nc(Nc2ncc(C(=O)Nc3c(C)cccc3Cl)s2)cc(N2CCN(CCO)CC2)n1 [Dasatinib]	4.282	4.014	4.43	–	–	–
C[C@@H](CN1CC(=O)NC(=O)C1)N1CC(=O)NC(=O)C1 [Dexrazoxane]	8.317	8.753	8.868	–	–	–
CC(=O)O[C@@]12CO[C@@H]1C[C@H](O)[C@@]1(C)C(=O)[C@H](O)C3=C(C)[C@@H](OC(=O)[C@H](O)[C@@H](NC(=O)OC(C)(C)C)c4ccccc4)C[C@@](O)([C@@H](OC(=O)c4ccccc4)[C@H]21)C3(C)C [Docetaxel]	1.432	1.639	1.663	–	–	–
COc1cccc2c1C(=O)c1c(O)c3c(c(O)c1C2=O)C[C@@](O)(C(=O)CO)C[C@@H]3O[C@H]1C[C@H](N)[C@H](O)[C@H](C)O1 [Doxorubicin Hydrochloride]	0.9435	–	–	–	0.9013	1.009
CNC(=O)c1ccc(N2C(=S)N(c3ccc(C#N)c(C(F)(F)F)c3)C(=O)C2(C)C)cc1F [Enzalutamide]	8.931	8.864	8.634	–	–	–
COc1cccc2c1C(=O)c1c(O)c3c(c(O)c1C2=O)C[C@@](O)(C(=O)CO)C[C@@H]3O[C@H]1C[C@H](N)[C@@H](O)[C@H](C)O1 [Epirubicin Hydrochloride]	0.8944	–	–	–	0.9399	1.019
Cc1c(C(=O)Nc2ccc(N3C[C@@H](C)O[C@@H](C)C3)nc2)cccc1-c1ccc(OC(F)(F)F)cc1 [Erismodgib]	7.435	6.922	7.491	–	–	–
C=C1C[C@@H]2[C@H](CC[C@]3(C)C(=O)CC[C@@H]23)[C@@]2(C)C=CC(=O)C=C12 [Exemestane]	8.564	–	–	–	–	–
CC(=O)[C@]1(O)Cc2c(O)c3c(c(O)c2[C@@H](O[C@H]2C[C@H](N)[C@H](O)[C@H](C)O2)C1)C(=O)c1ccccc1C3=O [Idarubicin Hydrochloride]	0.958	–	–	–	–	–
O=C1c2c(O)ccc(O)c2C(=O)c2c(NCCNCCO)ccc(NCCNCCO)c21 [Mitoxantrone]	2.338	–	–	–	–	–
OC[C@H]1O[C@@H](n2cnc3c2NC=NC[C@H]3O)C[C@@H]1O [Pentostatin]	10.31	–	–	–	–	–
CNC(=O)c1cc(Oc2ccc(NC(=O)Nc3ccc(Cl)c(C(F)(F)F)c3)cc2)ccn1 [Sorafenib]	3.981	–	–	–	–	–
CO[C@H]1C[C@@H]2CC[C@@H](C)[C@@](O)(O2)C(=O)C(=O)N2CCCC[C@H]2C(=O)O[C@H]([C@H](C)C[C@@H]2CC[C@@H](OC(=O)C(C)(CO)CO)[C@H](OC)C2)CC(=O)[C@H](C)/C=C(\C)[C@@H](O)[C@@H](OC)C(=O)[C@H](C)C[C@H](C)/C=C/C=C/C=C/1C [Temsirolimus]	2.486	–	–	–	–	–
Nc1nc2nc[nH]c2c(=S)[nH]1 [Thioguanine]	4.122	–	–	–	–	–
Dabrafenib Mesylate	14.9	14.73	–	–	–	–
